Results taken from patent publication US20230192700A1, “PYRAZOLOPYRAZINES ACTING ON CANCERS VIA INHIBITION OF CDK12” (Bayer Aktiengesellschaft, priority 2020, published 2023).
Where two headings read alike, the source gives them in different places.

Legend:
[1] = biological target: T1, CDK12/CyclinK (Homo sapiens, UniProt Q9NYV4); experiment: CDK12/CycK high ATP kinase assay (TR-FRET); format: biochemical; conditions: 2 mM ATP (high ATP); median; read-out: CDK12/CyclinK, 2 mM ATP (high ATP), IC50 - [mol/l] (median)
T1 construct: His-CDK12 (aa Q696-S1082); made in house; host or cells: Hi-5 insect cells (baculovirus co-infection with CycK and yeast CAK1)
Text: 2.2 CDK12/CycK high ATP Kinase Assay
In the context of the present invention, the term “IC50 CDK12 hATP” refers to the ICso values obtained according to the assay described in this section (2.2) herein below, i.e. the IC50 values for the inhibition of CDK12 at high ATP.
CDK12/CycK -inhibitory activity of compounds of the present invention at 2 millimol/L adenosine-tri-phosphate (ATP) was quantified employing the TR-FRET (TR-FRET=Time Resolved Fluorescence Energy Transfer) based CDK12/CycK activity inhibition assay as described in the following paragraphs.
A complex of human recombinant CDK12 and human recombinant CycK (both N-terminally His-tagged, expression and purification as described above) was used as enzyme. As substrate for the kinase reaction biotinylated peptide biotin-Ahx-KFELLPTPPLSPSRRSGL (C-terminus in amid form) was used which can be purchased e.g. form the company Biosyntan (Berlin-Buch, Germany).
For the assay 50 nanoL of a 100 fold concentrated solution of the test compound in DMSO was pipetted into either a black low volume 384 well microtiter plate or a black 1536 well microtiter plate (both Greiner Bio-One, Frickenhausen, Germany), 2 microL of a solution of CDK12/CycK in aqueous assay buffer [25 millimol/L HEPES pH 7.5, 20 millimol/L MgCl2, 5 millimol/L β-glycerophosphate, 2 millimol/L EGTA, 1.0 millimol/L dithiothreitol, 0.01% (v/v) Nonidet-P40 (Sigma), 0.01% (w/v) bovine serum albumin] were added and the mixture was incubated for 15 min at 22° C. to allow pre-binding of the test compounds to the enzyme before the start of the kinase reaction. Then the kinase reaction was started by the addition of 3 microL of a solution ATP (3.33 millimol/L=>final conc. in the 5 microL assay volume is 2 millimol/L) and substrate (1.67 micromol/L=>final conc. in the 5 microL assay volume is 1 micromol/L) in assay buffer and the resulting mixture was incubated for a reaction time of 60 min at 22° C. The concentration of CDK12/CycK was adjusted depending of the activity of the enzyme lot and was chosen appropriate to have the assay in the linear range, typical concentrations were about 0.75 nanomol/L. The reaction was stopped by the addition of 3 microL of a solution of TR-FRET detection reagents (125 nanomol/L streptavidine-XL665 [Cisbio Bioassays, Codolet, France] and 0.67 nanomol/L anti-Phospho-c-Myc (Ser 62) (E1J4K)-antibody from Cell Signalling [#13748] and 2 nanomol/L LANCE EU-W1024 labeled anti-rabbit IgG antibody [Perkin-Elmer, product no. 0083]) in an aqueous EDTA-solution (133 millimol/L EDTA, 0.27% (w/v) bovine serum albumin in 66.7 millimol/L HEPES pH 7.5).
The resulting mixture was incubated 1 h at 22° C. to allow the formation of complex between the phosphorylated biotinylated peptide and the detection reagents. Subsequently the amount of phosphorylated substrate was evaluated by measurement of the resonance energy transfer from the Eu-chelate to the streptavidine-XL. Therefore, the fluorescence emissions at 620 nm and 665 nm after excitation at 350 nm was measured in a TR-FRET reader, e.g. a Pherastar FS (BMG Labtechnologies, Offenburg, Germany) or a Viewlux (Perkin-Elmer). The ratio of the emissions at 665 nm and at […] was taken as the measure for the amount of phosphorylated substrate. The data were normalised (enzyme reaction without inhibitor=0% inhibition, all other assay components but no enzyme=100% inhibition).

[2] = tested on: CAL-120 human breast adenocarcinoma cells; experiment: Proliferation assay CAL-120 (crystal violet); format: cell-based; conditions: CAL-120 cells, 4 days, median, read-out: Prolif-CAL-120— IC50 - [mol/l] (median)
Experimental: 4. Proliferation assay: MDA-MB-231, CAL-120
Human tumour cells were originally obtained from the American Type Culture Collection (ATCC), or from the Deutsche Sammlung von Mikroorganismen and Zellkulturen (DSMZ, German Collection of Microorganisms and Cell Cultures). Cultivated tumour cells (CAL-120, human breast adenocarcinoma cells, DSMZ ACC-459; MDA-M B-231, human breast cancer cells, ATCC HTB-26) were plated at a density of 4,000 cells/well in a 96-well multititer plate in 200 microL of their respective growth medium supplemented 10% fetal calf serum. After 24 hours, the cells of one plate (zero-point plate) were stained with crystal violet (see below), while the medium of the other plates was supplemented with the test substances in various concentrations (0 micromol/L, as well as in the range of 0.01-10 micromol/L; the final concentration of the solvent dimethyl sulfoxide was adjusted to 0.1%) using a Tecan HP D300 Digital Dispenser. The cells were incubated for 4 days in the presence of test substances. Cell proliferation was determined by staining the cells with crystal violet: the cells were fixed by adding 20 microL/measuring point of an 11% glutaric aldehyde solution for 15 minutes at room temperature. After three washing cycles of the fixed cells with water, the plates were dried at room temperature. The cells were stained by adding 100 microL/measuring point of a 0.1% crystal violet solution (pH 3.0). After three washing cycles of the stained cells with water, the plates were dried at room temperature. The dye was dissolved by adding 100 microL/measuring point of a 10% acetic acid solution. The extinction was determined by photometry at a wavelength of 595 nm. The change of cell number, in percent, was calculated by normalization of the measured values to the extinction values of the zero-point plate(=0%) and the extinction of the untreated (0 μM) cells(=100%). The IC50 values (inhibitory concentration at 50% of maximal effect) were determined by means of a 4 parameter fit.

T1 sequence (Q9NYV4 with tags, fused parts or gaps): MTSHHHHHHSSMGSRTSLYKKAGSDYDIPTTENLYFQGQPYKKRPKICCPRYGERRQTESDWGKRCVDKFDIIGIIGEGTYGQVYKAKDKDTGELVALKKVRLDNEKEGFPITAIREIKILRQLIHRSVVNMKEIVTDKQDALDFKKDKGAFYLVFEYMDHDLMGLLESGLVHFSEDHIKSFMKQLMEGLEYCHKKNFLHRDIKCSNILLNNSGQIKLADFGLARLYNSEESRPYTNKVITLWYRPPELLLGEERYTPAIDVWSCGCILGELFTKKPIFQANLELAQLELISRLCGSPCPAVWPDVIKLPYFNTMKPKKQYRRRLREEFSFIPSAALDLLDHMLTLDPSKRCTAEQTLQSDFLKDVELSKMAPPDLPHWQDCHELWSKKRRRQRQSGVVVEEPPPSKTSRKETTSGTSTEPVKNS
T1 sequence (O75909 with tags, fused parts or gaps partner limits assumed): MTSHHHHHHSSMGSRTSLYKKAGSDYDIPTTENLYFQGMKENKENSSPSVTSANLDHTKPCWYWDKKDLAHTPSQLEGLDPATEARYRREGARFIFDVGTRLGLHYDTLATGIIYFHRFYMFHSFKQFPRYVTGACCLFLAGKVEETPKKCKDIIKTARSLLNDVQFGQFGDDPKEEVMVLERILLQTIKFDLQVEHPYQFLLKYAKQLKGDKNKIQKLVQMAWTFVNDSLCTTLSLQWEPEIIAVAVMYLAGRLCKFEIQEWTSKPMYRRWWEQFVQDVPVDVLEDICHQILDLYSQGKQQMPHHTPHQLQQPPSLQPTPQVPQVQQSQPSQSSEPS

How did the IC50 [1] turn out when COCCCn1nc(NCc2nc3ccccc3[nH]2)c2ncc(C3CC3)nc21 [Example 61, N-[(1H-benzimidazol-2-yl)methyl]-6-cyclopropyl-1-(3-methoxypropyl)-1H-pyrazolo[3,4-b]pyrazin-3-amine] was run?
Its IC50 is > 20000 nM.

And the IC50 ([2]; Homo sapiens, CAL-120, 96 h)?
Its IC50 is 60.6 nM.

Which IC50 [1] does the source give for Cc1cccc2[nH]c(CNc3nn(C4CCOCC4)c4nc(C5CC5)cnc34)nc12 [Example 33, 6-cyclopropyl-N-[(4-methyl-1H-benzimidazol-2-yl)methyl]-1-(oxan-4-yl)-1H-pyrazolo[3,4-b]pyrazin-3-amine] here?
Its IC50 is > 20000 nM.

And the IC50 ([2]; Homo sapiens, CAL-120, 96 h)?
Its IC50 is 22.5 nM.

How did the IC50 [1] turn out when CN1CCC(n2nc(NCc3nc4cc(F)ccc4[nH]3)c3ncc(C4CC4)nc32)CC1 [Example 4, 6-cyclopropyl-N-[(5-fluoro-1H-benzimidazol-2-yl)methyl]-1-(1-methylpiperidin-4-yl)-1H-pyrazolo[3,4-b]pyrazin-3-amine] was run?
The IC50 was > 20000 nM.

And the IC50 ([2]; Homo sapiens, CAL-120, 96 h)?
The IC50 was 16.3 nM.

With Fc1ccc2[nH]c(CNc3nn(C4CCOCC4)c4nc(C5CC5)cnc34)nc2c1 [Example 53, 6-cyclopropyl-N-[(5-fluoro-1H-benzimidazol-2-yl)methyl]-1-(oxan-4-yl)-1H-pyrazolo[3,4-b]pyrazin-3-amine] as the molecule, how does the IC50 [1] read?
Its IC50 is > 10000 nM.

What about the IC50 ([2]; Homo sapiens, CAL-120, 96 h) of the same molecule?
Its IC50 is 19.7 nM.

Which IC50 [1] does the source give for CN1CCCC(n2nc(NCc3nc4ccccc4[nH]3)c3ncc(C4CC4)nc32)CC1 (racemic) [Example 34, (±)-N-[(1H-benzimidazol-2-yl)methyl]-6-cyclopropyl-1-(1-methylazepan-4-yl)-1H-pyrazolo[3,4-b]pyrazin-3-amine] here?
Its IC50 is > 20000 nM.

What about the IC50 ([2]; Homo sapiens, CAL-120, 96 h) of the same molecule?
Its IC50 is 7.7 nM.

Which IC50 [1] does the source give for CN1CCC(n2nc(NCc3nc4ccccc4[nH]3)c3ncc(C4CC4)nc32)C1 (single isomer, unassigned) [Example 78, (+) or (−)-N-[(1H-benzimidazol-2-yl)methyl]-6-cyclopropyl-1-(1-methylpyrrolidin-3-yl)-1H-pyrazolo[3,4-b]pyrazin-3-amine] here?
Its IC50 is > 20000 nM.

And the IC50 [2]?
Its IC50 is 11.2 nM.

How did the IC50 [1] turn out when CN1CCC(n2nc(NCc3nc4c(F)c(F)ccc4[nH]3)c3ncc(C4CC4)nc32)CC1 [Example 9, 6-cyclopropyl-N-[(4,5-difluoro-1H-benzimidazol-2-yl)methyl]-1-(1-methylpiperidin-4-yl)-1H-pyrazolo[3,4-b]pyrazin-3-amine] was run?
The IC50 was > 20000 nM.

What about the IC50 ([2]; Homo sapiens, CAL-120, 96 h) of the same molecule?
The IC50 was 6.78 nM.

CN1CCC(n2nc(NCc3nc4cc(Cl)ccc4[nH]3)c3ncc(C4CC4)nc32)CC1 [Example 22, N-[(5-chloro-1H-benzimidazol-2-yl)methyl]-6-cyclopropyl-1-(1-methylpiperidin-4-yl)-1H-pyrazolo[3,4-b]pyrazin-3-amine] was tested. Which IC50 [1] did it give?
Its IC50 is > 20000 nM.

And the IC50 ([2]; Homo sapiens, CAL-120, 96 h)?
Its IC50 is 4.21 nM.

What does the source list for c1ccc2[nH]c(CNc3nn(C4CCOCC4)c4nc(C5CC5)cnc34)nc2c1 [Example 16, N-[(1H-benzimidazol-2-yl)methyl]-6-cyclopropyl-1-(oxan-4-yl)-1H-pyrazolo[3,4-b]pyrazin-3-amine]?
IC50 [1]: > 20000 nM; IC50 ([2]; Homo sapiens, CAL-120, 96 h): 103 nM

What does the source list for CN1CCC(n2nc(NCc3nc4c(Br)cccc4[nH]3)c3ncc(C4CC4)nc32)CC1 [Example 20, N-[(4-bromo-1H-benzimidazol-2-yl)methyl]-6-cyclopropyl-1-(1-methylpiperidin-4-yl)-1H-pyrazolo[3,4-b]pyrazin-3-amine]?
IC50 [1]: > 20000 nM; IC50 ([2]; Homo sapiens, CAL-120, 96 h): 7.27 nM

How did the IC50 [1] turn out when OC[C@H]1C[C@@H](n2nc(NCc3nc4ccccc4[nH]3)c3ncc(C4CC4)nc32)C1 [Example 47, [cis-3-(3-{[(1H-benzimidazol-2-yl)methyl]amino}-6-cyclopropyl-1H-pyrazolo[3,4-b]pyrazin-1-yl)cyclobutyl]methanol] was run?
Its IC50 is 12800 nM.

What about the IC50 ([2]; Homo sapiens, CAL-120, 96 h) of the same molecule?
The IC50 was 27.5 nM.

Which results are given for CN1CCC(n2nc(NCc3nc4c(Cl)c(F)ccc4[nH]3)c3ncc(C4CC4)nc32)CC1 [Example 31, N-[(4-chloro-5-fluoro-1H-benzimidazol-2-yl)methyl]-6-cyclopropyl-1-(1-methylpiperidin-4-yl)-1H-pyrazolo[3,4-b]pyrazin-3-amine]?
IC50 [1]: > 20000 nM; IC50 ([2]; Homo sapiens, CAL-120, 96 h): 7.09 nM

Which IC50 [1] does the source give for Cc1c(F)ccc2[nH]c(CNc3nn(C4CCN(C)CC4)c4nc(C5CC5)cnc34)nc12 [Example 26, 6-cyclopropyl-N-[(5-fluoro-4-methyl-1H-benzimidazol-2-yl)methyl]-1-(1-methylpiperidin-4-yl)-1H-pyrazolo[3,4-b]pyrazin-3-amine] here?
Its IC50 is > 20000 nM.

What about the IC50 ([2]; Homo sapiens, CAL-120, 96 h) of the same molecule?
Its IC50 is 10.1 nM.

For CN1CCC(n2nc(NCc3nc4ccccc4[nH]3)c3ncc(C4CC4)nc32)C1 (racemic) [Example 35, (±)-N-[(1H-benzimidazol-2-yl)methyl]-6-cyclopropyl-1-(1-methylpyrrolidin-3-yl)-1H-pyrazolo[3,4-b]pyrazin-3-amine], which IC50 [1] is on record?
Its IC50 is > 20000 nM.

And the IC50 ([2]; Homo sapiens, CAL-120, 96 h)?
Its IC50 is 11.7 nM.

With COCCn1nc(NCc2nc3ccccc3[nH]2)c2ncc(C3CC3)nc21 [Example 65, N-[(1H-benzimidazol-2-yl)methyl]-6-cyclopropyl-1-(2-methoxyethyl)-1H-pyrazolo[3,4-b]pyrazin-3-amine] as the molecule, how does the IC50 [1] read?
The IC50 was > 20000 nM.

And the IC50 ([2]; Homo sapiens, CAL-120, 96 h)?
Its IC50 is 147 nM.

What does the source list for OC[C@H]1C[C@H](n2nc(NCc3nc4ccccc4[nH]3)c3ncc(C4CC4)nc32)C1 [Example 46, [trans-3-(3-{[(1H-benzimidazol-2-yl)methyl]amino}-6-cyclopropyl-1H-pyrazolo[3,4-b]pyrazin-1-yl)cyclobutyl]methanol]?
IC50 [1]: > 20000 nM; IC50 ([2]; Homo sapiens, CAL-120, 96 h): 20.1 nM

Which results are given for CN1CCC(n2nc(NCc3nc4c(C(F)(F)F)cccc4[nH]3)c3ncc(C4CC4)nc32)CC1 [Example 7, 6-cyclopropyl-1-(1-methylpiperidin-4-yl)-N-{[4-(trifluoromethyl)-1H-benzimidazol-2-yl]methyl}-1H-pyrazolo[3,4-b]pyrazin-3-amine]?
IC50 [1]: > 20000 nM; IC50 ([2]; Homo sapiens, CAL-120, 96 h): 10.5 nM

What does the source list for Cc1ccc2[nH]c(CNc3nn(C4CCN(C)CC4)c4nc(C5CC5)cnc34)nc2c1C [Example 28, 6-cyclopropyl-N-[(4,5-dimethyl-1H-benzimidazol-2-yl)methyl]-1-(1-methylpiperidin-4-yl)-1H-pyrazolo[3,4-b]pyrazin-3-amine]?
IC50 [1]: > 20000 nM; IC50 ([2]; Homo sapiens, CAL-120, 96 h): 9.54 nM
